Source: the NIST ThermoML archive (doi:10.1021/acs.jced.5b00892)
± gives the expanded uncertainty stated by the source.

Settings: Liquid, Gas chromatography

With `C#CCOC(=O)/C=C(C)/C=C/CC(C)CCCC(C)C` (configuration not stated) [prop-2-ynyl (2E,4E)-3,7,11-trimethyldodeca-2,4-dienoate] the “vapor or sublimation pressure” value (298.15 K) was 4.2e-06 ± 2.4e-06 kPa, the “vapor or sublimation pressure” value (310 K) was 1.9e-05 ± 1e-05 kPa and the “vapor or sublimation pressure” value (320 K) was 6.1e-05 ± 2.8e-05 kPa. For the same molecule, the “vapor or sublimation pressure” value (330 K) was 0.00018 ± 8e-05 kPa, the “vapor or sublimation pressure” value (340 K) was 0.00049 ± 0.00022 kPa and the “vapor or sublimation pressure” value (350 K) was 0.0012 ± 0.0006 kPa. The “vapor or sublimation pressure” value (360 K) was 0.0029 ± 0.0013 kPa, the “vapor or sublimation pressure” value (370 K) was 0.0065 ± 0.003 kPa and the “vapor or sublimation pressure” value (380 K) was 0.014 ± 0.006 kPa. For the same molecule, the “vapor or sublimation pressure” value (390 K) was 0.028 ± 0.012 kPa, the “vapor or sublimation pressure” value (400 K) was 0.053 ± 0.022 kPa and the “vapor or sublimation pressure” value (410 K) was 0.098 ± 0.039 kPa. For the same molecule, the “vapor or sublimation pressure” value (420 K) was 0.17 ± 0.065 kPa, the “vapor or sublimation pressure” value (430 K) was 0.29 ± 0.11 kPa and the “vapor or sublimation pressure” value (440 K) was 0.49 ± 0.16 kPa. For the same molecule, the “vapor or sublimation pressure” value (450 K) was 0.78 ± 0.25 kPa, the “vapor or sublimation pressure” value (460 K) was 1.2 ± 0.35 kPa and the “vapor or sublimation pressure” value (470 K) was 1.8 ± 0.48 kPa. The “vapor or sublimation pressure” value (480 K) was 2.7 ± 0.63 kPa, the “vapor or sublimation pressure” value (490 K) was 3.9 ± 0.79 kPa and the “vapor or sublimation pressure” value (500 K) was 5.5 ± 0.96 kPa.

With `CCOC(=O)/C=C(C)/C=C/C[C@@H](C)CCCC(C)C` [ethyl (S,2E,4E)-3,7,11-trimethyldodeca-2,4-dienoate] the “vapor or sublimation pressure” value (298.15 K) was 1.4e-05 ± 8e-06 kPa, the “vapor or sublimation pressure” value (310 K) was 5.7e-05 ± 2.8e-05 kPa and the “vapor or sublimation pressure” value (320 K) was 0.00017 ± 8e-05 kPa. For the same molecule, the “vapor or sublimation pressure” value (330 K) was 0.00047 ± 0.0002 kPa, the “vapor or sublimation pressure” value (340 K) was 0.0012 ± 0.0005 kPa and the “vapor or sublimation pressure” value (350 K) was 0.0029 ± 0.0013 kPa. For the same molecule, the “vapor or sublimation pressure” value (360 K) was 0.0065 ± 0.0028 kPa, the “vapor or sublimation pressure” value (370 K) was 0.014 ± 0.006 kPa and the “vapor or sublimation pressure” value (380 K) was 0.028 ± 0.012 kPa. For the same molecule, the “vapor or sublimation pressure” value (390 K) was 0.054 ± 0.022 kPa, the “vapor or sublimation pressure” value (400 K) was 0.1 ± 0.041 kPa and the “vapor or sublimation pressure” value (410 K) was 0.18 ± 0.067 kPa. For the same molecule, the “vapor or sublimation pressure” value (420 K) was 0.3 ± 0.11 kPa, the “vapor or sublimation pressure” value (430 K) was 0.5 ± 0.17 kPa and the “vapor or sublimation pressure” value (440 K) was 0.81 ± 0.25 kPa. For the same molecule, the “vapor or sublimation pressure” value (450 K) was 1.3 ± 0.37 kPa, the “vapor or sublimation pressure” value (460 K) was 1.9 ± 0.52 kPa and the “vapor or sublimation pressure” value (470 K) was 2.8 ± 0.69 kPa. For the same molecule, the “vapor or sublimation pressure” value (480 K) was 4.1 ± 0.87 kPa, the “vapor or sublimation pressure” value (490 K) was 5.8 ± 1.1 kPa and the “vapor or sublimation pressure” value (500 K) was 8 ± 1.3 kPa.

With `CCCCCCCC/C=C\CCCOC(C)=O` [(Z)-tridec-4-enyl acetate] the “vapor or sublimation pressure” value (298 K) was 0.00012 ± 8e-05 kPa, the “vapor or sublimation pressure” value (310 K) was 0.00042 ± 0.0002 kPa and the “vapor or sublimation pressure” value (320 K) was 0.0011 ± 0.0004 kPa. The “vapor or sublimation pressure” value (330 K) was 0.0028 ± 0.0008 kPa, the “vapor or sublimation pressure” value (340 K) was 0.0065 ± 0.0015 kPa and the “vapor or sublimation pressure” value (350 K) was 0.0142 ± 0.0024 kPa. For the same molecule, the “vapor or sublimation pressure” value (360 K) was 0.029 ± 0.004 kPa, the “vapor or sublimation pressure” value (370 K) was 0.058 ± 0.006 kPa and the “vapor or sublimation pressure” value (380 K) was 0.11 ± 0.01 kPa. For the same molecule, the “vapor or sublimation pressure” value (390 K) was 0.2 ± 0.02 kPa, the “vapor or sublimation pressure” value (400 K) was 0.34 ± 0.038 kPa and the “vapor or sublimation pressure” value (410 K) was 0.57 ± 0.072 kPa. The “vapor or sublimation pressure” value (420 K) was 0.92 ± 0.12 kPa, the “vapor or sublimation pressure” value (430 K) was 1.5 ± 0.21 kPa and the “vapor or sublimation pressure” value (440 K) was 2.2 ± 0.32 kPa. For the same molecule, the “vapor or sublimation pressure” value (450 K) was 3.3 ± 0.46 kPa, the “vapor or sublimation pressure” value (460 K) was 4.8 ± 0.62 kPa and the “vapor or sublimation pressure” value (470 K) was 6.9 ± 0.81 kPa. For the same molecule, the “vapor or sublimation pressure” value (480 K) was 9.6 ± 1.1 kPa, the “vapor or sublimation pressure” value (490 K) was 13 ± 1.4 kPa and the “vapor or sublimation pressure” value (500 K) was 18 ± 2 kPa.

With `CC/C=C/C=C/CCCCCCCCOC(C)=O` [(9E,11E)-tetradeca-9,11-dienyl acetate] the “vapor or sublimation pressure” value (298.15 K) was 1.5e-05 ± 9e-06 kPa, the “vapor or sublimation pressure” value (310 K) was 6.3e-05 ± 3e-05 kPa and the “vapor or sublimation pressure” value (320 K) was 0.00019 ± 9e-05 kPa. For the same molecule, the “vapor or sublimation pressure” value (330 K) was 0.00051 ± 0.00022 kPa, the “vapor or sublimation pressure” value (340 K) was 0.0013 ± 0.0006 kPa and the “vapor or sublimation pressure” value (350 K) was 0.0031 ± 0.0014 kPa. For the same molecule, the “vapor or sublimation pressure” value (360 K) was 0.007 ± 0.003 kPa, the “vapor or sublimation pressure” value (370 K) was 0.015 ± 0.007 kPa and the “vapor or sublimation pressure” value (380 K) was 0.03 ± 0.013 kPa. The “vapor or sublimation pressure” value (390 K) was 0.058 ± 0.024 kPa, the “vapor or sublimation pressure” value (400 K) was 0.11 ± 0.043 kPa and the “vapor or sublimation pressure” value (410 K) was 0.19 ± 0.073 kPa. The “vapor or sublimation pressure” value (420 K) was 0.33 ± 0.12 kPa, the “vapor or sublimation pressure” value (430 K) was 0.54 ± 0.18 kPa and the “vapor or sublimation pressure” value (440 K) was 0.87 ± 0.27 kPa. For the same molecule, the “vapor or sublimation pressure” value (450 K) was 1.4 ± 0.39 kPa, the “vapor or sublimation pressure” value (460 K) was 2.1 ± 0.54 kPa and the “vapor or sublimation pressure” value (470 K) was 3 ± 0.73 kPa. The “vapor or sublimation pressure” value (480 K) was 4.4 ± 0.93 kPa, the “vapor or sublimation pressure” value (490 K) was 6.2 ± 1.1 kPa and the “vapor or sublimation pressure” value (500 K) was 8.6 ± 1.4 kPa.

With `CCCC/C=C\CCCCCCCCCCCCOC(C)=O` [(Z)-octadec-13-en-1-yl acetate] the “vapor or sublimation pressure” value (298.15 K) was 4.1e-07 ± 2.6e-07 kPa, the “vapor or sublimation pressure” value (310 K) was 2.2e-06 ± 1.2e-06 kPa and the “vapor or sublimation pressure” value (320 K) was 8.2e-06 ± 4.2e-06 kPa. The “vapor or sublimation pressure” value (330 K) was 2.7e-05 ± 1.3e-05 kPa, the “vapor or sublimation pressure” value (340 K) was 8.3e-05 ± 4e-05 kPa and the “vapor or sublimation pressure” value (350 K) was 0.00023 ± 0.00012 kPa. The “vapor or sublimation pressure” value (360 K) was 0.00061 ± 0.0003 kPa, the “vapor or sublimation pressure” value (370 K) was 0.0015 ± 0.0007 kPa and the “vapor or sublimation pressure” value (380 K) was 0.0034 ± 0.0017 kPa. For the same molecule, the “vapor or sublimation pressure” value (390 K) was 0.0074 ± 0.0036 kPa, the “vapor or sublimation pressure” value (400 K) was 0.015 ± 0.007 kPa and the “vapor or sublimation pressure” value (410 K) was 0.03 ± 0.013 kPa. For the same molecule, the “vapor or sublimation pressure” value (420 K) was 0.056 ± 0.024 kPa, the “vapor or sublimation pressure” value (430 K) was 0.1 ± 0.041 kPa and the “vapor or sublimation pressure” value (440 K) was 0.18 ± 0.067 kPa. For the same molecule, the “vapor or sublimation pressure” value (450 K) was 0.3 ± 0.11 kPa, the “vapor or sublimation pressure” value (460 K) was 0.48 ± 0.16 kPa and the “vapor or sublimation pressure” value (470 K) was 0.76 ± 0.23 kPa. For the same molecule, the “vapor or sublimation pressure” value (480 K) was 1.2 ± 0.31 kPa, the “vapor or sublimation pressure” value (490 K) was 1.7 ± 0.42 kPa and the “vapor or sublimation pressure” value (500 K) was 2.5 ± 0.55 kPa.

For `CCC/C=C\CCCCCCCOC(C)=O` [(Z)-dodec-8-enyl acetate], the “vapor or sublimation pressure” value (298 K) was 0.00027 ± 0.00016 kPa, the “vapor or sublimation pressure” value (310 K) was 0.00091 ± 0.00041 kPa and the “vapor or sublimation pressure” value (320 K) was 0.0023 ± 0.0008 kPa. For the same molecule, the “vapor or sublimation pressure” value (330 K) was 0.0056 ± 0.0016 kPa, the “vapor or sublimation pressure” value (340 K) was 0.013 ± 0.003 kPa and the “vapor or sublimation pressure” value (350 K) was 0.027 ± 0.004 kPa. For the same molecule, the “vapor or sublimation pressure” value (360 K) was 0.053 ± 0.006 kPa, the “vapor or sublimation pressure” value (370 K) was 0.1 ± 0.009 kPa and the “vapor or sublimation pressure” value (380 K) was 0.19 ± 0.017 kPa. The “vapor or sublimation pressure” value (390 K) was 0.33 ± 0.032 kPa, the “vapor or sublimation pressure” value (400 K) was 0.56 ± 0.061 kPa and the “vapor or sublimation pressure” value (410 K) was 0.93 ± 0.11 kPa. The “vapor or sublimation pressure” value (420 K) was 1.5 ± 0.19 kPa, the “vapor or sublimation pressure” value (430 K) was 2.3 ± 0.31 kPa and the “vapor or sublimation pressure” value (440 K) was 3.5 ± 0.45 kPa. For the same molecule, the “vapor or sublimation pressure” value (450 K) was 5.1 ± 0.63 kPa, the “vapor or sublimation pressure” value (460 K) was 7.3 ± 0.85 kPa and the “vapor or sublimation pressure” value (470 K) was 10 ± 1.1 kPa. For the same molecule, the “vapor or sublimation pressure” value (480 K) was 14.1 ± 1.4 kPa, the “vapor or sublimation pressure” value (490 K) was 19 ± 1.9 kPa and the “vapor or sublimation pressure” value (500 K) was 25 ± 3.1 kPa.

In the case of `CC/C=C/CCCCCCCCCCOC(C)=O` [(E)-tetradec-11-enyl acetate], the “vapor or sublimation pressure” value (298.15 K) is reported as 2.8e-05 ± 1.6e-05 kPa, the “vapor or sublimation pressure” value (310 K) is reported as 0.00011 ± 5e-05 kPa and the “vapor or sublimation pressure” value (320 K) is reported as 0.00032 ± 0.00014 kPa. The “vapor or sublimation pressure” value (330 K) was 0.00086 ± 0.00037 kPa, the “vapor or sublimation pressure” value (340 K) was 0.0021 ± 0.0009 kPa and the “vapor or sublimation pressure” value (350 K) was 0.0049 ± 0.002 kPa. The “vapor or sublimation pressure” value (360 K) was 0.011 ± 0.005 kPa, the “vapor or sublimation pressure” value (370 K) was 0.022 ± 0.01 kPa and the “vapor or sublimation pressure” value (380 K) was 0.044 ± 0.018 kPa. The “vapor or sublimation pressure” value (390 K) was 0.084 ± 0.035 kPa, the “vapor or sublimation pressure” value (400 K) was 0.15 ± 0.059 kPa and the “vapor or sublimation pressure” value (410 K) was 0.27 ± 0.098 kPa. For the same molecule, the “vapor or sublimation pressure” value (420 K) was 0.45 ± 0.16 kPa, the “vapor or sublimation pressure” value (430 K) was 0.73 ± 0.24 kPa and the “vapor or sublimation pressure” value (440 K) was 1.2 ± 0.35 kPa. The “vapor or sublimation pressure” value (450 K) was 1.8 ± 0.5 kPa, the “vapor or sublimation pressure” value (460 K) was 2.7 ± 0.69 kPa and the “vapor or sublimation pressure” value (470 K) was 3.9 ± 0.9 kPa. For the same molecule, the “vapor or sublimation pressure” value (480 K) was 5.6 ± 1.2 kPa, the “vapor or sublimation pressure” value (490 K) was 7.8 ± 1.4 kPa and the “vapor or sublimation pressure” value (500 K) was 11 ± 1.7 kPa.
